Experimental data as given in patent publication EP1000039B1 (Wyeth Holdings Corporation, priority 1997, dated 1999).
Converted amounts (≈) assume the structure as drawn.

What was measured:
[1] = test system: Human Epidermoid Tumors (A431); assay: In Vivo Inhibition of the Growth of Human Epidermoid Tumors (A431) in mice
Procedure: BALB/c nu/nu female mice (Charles River, Wilmington, MA) were used in the in vivo standard pharmacological test procedures. Human epidermoid carcinoma cells A-431 (American Type Culture Collection, Rockville, Maryland # CRL-155) were grown in vitro as described above. A unit of 5 X 10^6 cells were injected SC into mice. When tumors attained a mass of between 100 and 150 mg, the mice were randomized into treatment groups (day zero). Mice were treated iP or PO once a day either on days 1, 5, and 9 or on days 1 through 10 post staging with doses of either 80, 40 or 20, or 10 mg/kg/dose of the compound to be evaluated in 0.2% Klucel. Control animals received no drug. Tumor mass was determined every 7 days [(length X width^2)/2) for 28 days post staging. Relative tumor growth (Mean tumor mass on day 7, 14, 21, and 28 divided by the mean tumor mass on day zero) is determined for each treatment group. The %T/C (Tumor/Control) is determined by dividing the relative tumor growth of the treated group by the relative tumor growth of the placebo group and multiplying by 100. A compound is considered to be active if the %T/C is found to be […].

SKBR3 = assay: Inhibition of Cancer Cell Growth (Sulforhodamine B); format: cell-based, Human; conditions: Homo sapiens, SK-BR-3, 48 hours exposure, read-out: Inhibition of Cancer Cell Growth as Measured by Cell Number (IC50) SKBR3
Procedure: (§1) After 48 hours exposure to test compounds, cells were fixed with trichloroacetic acid, and stained with Sulforhodamine B. After washing with trichloroacetic acid, bound dye was solubilized in 10 mM Tris base and optical density was determined using plate reader. Under conditions of the assay the optical density is proportional to the number of cells in the well. […] The test procedure is described in details by Philip Skehan et. al. J.Natl. Canc. […]

A431 = assay: as above; format: cell-based, Human; conditions: Homo sapiens, A-431, 48 hours exposure, read-out: Inhibition of Cancer Cell Growth as Measured by Cell Number (IC50) A431
Procedure: as §1

A2780DDP = assay: as above; format: cell-based, Human; conditions: Homo sapiens, 48 hours exposure, read-out: Inhibition of Cancer Cell Growth as Measured by Cell Number (IC50) A2780DDP
Procedure: as §1

MCF7 = assay: as above; format: cell-based, Human; conditions: Homo sapiens, 48 hours exposure, read-out: Inhibition of Cancer Cell Growth as Measured by Cell Number (IC50) MCF7
Procedure: as §1

A2780S = assay: as above; format: cell-based, Human; conditions: Homo sapiens, 48 hours exposure, read-out: Inhibition of Cancer Cell Growth as Measured by Cell Number (IC50) A2780S
Procedure: as §1

SW620 = assay: as above; format: cell-based, Human; conditions: Homo sapiens, SW-620, 48 hours exposure, read-out: Inhibition of Cancer Cell Growth as Measured by Cell Number (IC50) SW620
Procedure: as §1

LOX = assay: as above; format: cell-based, Human; conditions: Homo sapiens, 48 hours exposure, read-out: Inhibition of Cancer Cell Growth as Measured by Cell Number (IC50) LOX
Procedure: as §1

MB435 = assay: as above; format: cell-based, Human; conditions: Homo sapiens, 48 hours exposure, read-out: Inhibition of Cancer Cell Growth as Measured by Cell Number (IC50) MB435
Procedure: as §1

[2] = target: T1, His-tagged cytoplasmic domain of EGFR (Homo sapiens, UniProt P00533); assay: Inhibition of Epidermal Growth Factor Receptor Kinase (EGF-R) using recombinant enzyme, RR-SRC peptide phosphorylation; format: biochemical; conditions: recombinant enzyme; average of the number of tests; read-out: IC50
T1 construct: containing the EGFR cDNA encoding amino acids 645 - 1186 preceded by Met-Ala-(His)6; Met-Ala-(His)6 (N); made in house; host or cells: Sf9 insect cells, recombinant baculovirus vHcEGFR52
Procedure: The enzyme used in this assay is the His-tagged cytoplasmic domain of EGFR. […] Sf9 cells in 100 mm plates were infected at an moi of 10 pfu/cell and cells were harvested 48 h post infection. A cytoplasmic extract was prepared using 1% Triton X-100 and applied to Ni-NTA column. After washing the column with 20 mM imidazole, HcEGFR was eluted with 250 mM imidazole (in 50 mM Na2HPO4, pH 8.0, 300 mM NaCl). Fractions collected were dialyzed against 10 mM HEPES, pH 7.0, 50 mM NaCl, 10% glycerol, 1ug/mL antipain and leupeptin and 0. 1 mM Pefabloc SC. The protein was frozen in dry ice/methanol and stored -70°C.
For the enzyme reaction, 10 uL of each inhibitor (at various concentrations) were added to each well of a 96-well plate. To this was added 3 uL of enzyme (1: 10 dilution in 10mM HEPES, pH 7.4 for final conc. of 1:120). This was allowed to sit for 10 min on ice and was followed by the addition of 5 ul peptide (80 uM final conc.), 10ul of 4X Buffer (Table A), 0.25 uL ^33P-ATP and 12 uL H2O. The reaction was allowed to run for 90 min at room temperature and was followed by spotting the entire volume on to precut P81 filter papers. The filter discs were washed 2X with 0.5% phosphoric acid and radioactivity was measured using a liquid scintillation counter.

[3] = test system: Human Epidermoid Tumors (A431); assay: In Vivo Inhibition of the Growth of Human Epidermoid Tumors (A431) in mice; conditions: days 1 through 10
[4] = target: epidermal growth factor receptor kinase (Homo sapiens, UniProt P00533); assay: Inhibition of Epidermal Growth Factor Receptor Kinase (EGF-R), cell membrane preparation (A431 membrane extract), RR-SRC peptide phosphorylation; conditions: average of the number of tests
epidermal growth factor receptor kinase, sequence (P00533 25-1210): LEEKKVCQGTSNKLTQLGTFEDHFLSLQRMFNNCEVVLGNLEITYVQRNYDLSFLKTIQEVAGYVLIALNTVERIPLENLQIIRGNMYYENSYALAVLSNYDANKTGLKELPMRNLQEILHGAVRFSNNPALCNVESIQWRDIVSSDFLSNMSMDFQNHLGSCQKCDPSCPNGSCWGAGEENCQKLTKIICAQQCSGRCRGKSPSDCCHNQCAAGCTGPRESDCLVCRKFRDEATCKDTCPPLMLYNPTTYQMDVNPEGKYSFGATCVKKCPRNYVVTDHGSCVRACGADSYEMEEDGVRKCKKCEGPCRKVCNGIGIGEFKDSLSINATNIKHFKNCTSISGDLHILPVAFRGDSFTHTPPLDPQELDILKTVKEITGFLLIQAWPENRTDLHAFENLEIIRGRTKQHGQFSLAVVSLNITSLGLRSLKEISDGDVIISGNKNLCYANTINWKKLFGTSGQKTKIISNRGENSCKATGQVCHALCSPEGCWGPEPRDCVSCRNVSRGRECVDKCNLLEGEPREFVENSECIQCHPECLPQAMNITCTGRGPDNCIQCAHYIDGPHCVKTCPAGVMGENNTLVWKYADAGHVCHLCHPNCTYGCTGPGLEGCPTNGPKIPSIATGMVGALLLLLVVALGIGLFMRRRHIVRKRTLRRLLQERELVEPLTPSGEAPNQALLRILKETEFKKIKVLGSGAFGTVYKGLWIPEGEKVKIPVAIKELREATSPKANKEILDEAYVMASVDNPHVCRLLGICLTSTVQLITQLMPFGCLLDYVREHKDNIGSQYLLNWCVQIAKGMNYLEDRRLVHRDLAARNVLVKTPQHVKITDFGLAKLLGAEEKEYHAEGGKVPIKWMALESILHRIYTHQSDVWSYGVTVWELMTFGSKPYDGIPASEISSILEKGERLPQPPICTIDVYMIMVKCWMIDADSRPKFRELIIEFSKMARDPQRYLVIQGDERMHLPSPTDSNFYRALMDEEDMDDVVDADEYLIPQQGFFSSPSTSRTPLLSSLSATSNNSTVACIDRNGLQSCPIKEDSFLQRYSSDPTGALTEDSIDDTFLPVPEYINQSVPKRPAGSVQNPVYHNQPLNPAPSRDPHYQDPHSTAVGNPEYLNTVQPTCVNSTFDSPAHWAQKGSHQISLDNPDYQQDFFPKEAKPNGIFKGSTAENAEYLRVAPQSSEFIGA
Procedure: Test compounds were evaluated for their ability to inhibit the phosphorylation of the tyrosine residue of a peptide substrate catalyzed by the enzyme epidermal growth factor receptor kinase. […] The enzyme was obtained as a membrane extract of A431 cells (American Type Culture Collection, Rockville, MD). A431 cells were grown in T175 flasks to 80% confluency. The cells were washed twice with phosphate buffered saline (PBS) without Ca^2+. Flasks were rotated for 1.5 hours in 20 mL PBS with 1.0 mM ethylenediaminetetraacetic acid (EDTA) at room temperature and centrifuged at 600g for 10 minutes. […]
An aliquot of the A431 membrane extract (10 mg/mL) was diluted in 30 mM HEPES (pH 7.4) to give a protein concentration of 50 ug/mL. […] The % inhibition of the test compound was determined for at least three different concentrations and the IC50 value was evaluated from the dose response curve. […] CPM(control) is in units of counts per minute and was a number expressing the amount of radiolabled ATP (γ-^33P) incorporated onto the RR-SRC peptide substrate by the enzyme after 30 minutes at 30°C in the absence of test compound as measured by liquid scintillation counting. […]

T1 sequence (P00533 669-1210): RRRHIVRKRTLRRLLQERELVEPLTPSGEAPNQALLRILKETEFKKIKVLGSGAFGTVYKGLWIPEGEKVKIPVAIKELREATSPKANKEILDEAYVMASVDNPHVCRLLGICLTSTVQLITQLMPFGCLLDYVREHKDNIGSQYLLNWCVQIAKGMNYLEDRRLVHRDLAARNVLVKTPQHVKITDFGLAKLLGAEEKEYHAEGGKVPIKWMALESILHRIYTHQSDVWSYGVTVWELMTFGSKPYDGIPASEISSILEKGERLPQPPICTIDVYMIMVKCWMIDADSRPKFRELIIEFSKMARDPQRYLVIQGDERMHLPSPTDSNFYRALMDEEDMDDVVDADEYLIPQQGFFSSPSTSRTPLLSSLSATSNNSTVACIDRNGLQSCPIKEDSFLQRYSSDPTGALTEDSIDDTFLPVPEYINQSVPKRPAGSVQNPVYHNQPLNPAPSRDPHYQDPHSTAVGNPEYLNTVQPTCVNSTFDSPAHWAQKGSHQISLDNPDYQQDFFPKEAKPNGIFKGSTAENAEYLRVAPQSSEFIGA

| Compound | IC50 (SKBR3) | IC50 (A431) | IC50 (A2780DDP) | IC50 (MCF7) | IC50 (A2780S) | IC50 (SW620) | IC50 (LOX) | IC50 (MB435) | IC50 [2] | IC50 [4] | S/T (No. Survivors/No. Treated on Day +28 post tumor staging) ([1]; Table 5: 40 PO, days 1 through 10) | %T/C Day 7 ([1]; Table 5: 40 PO, days 1 through 10, Day 7) | %T/C Day 14 ([1]; Table 5: 40 PO, days 1 through 10, Day 14) | %T/C Day 21 ([1]; Table 5: 40 PO, days 1 through 10, Day 21) | %T/C Day 28 ([1]; Table 5: 40 PO, days 1 through 10, Day 28) | inhibition of tumor growth in vivo (result in words) ([1]; summary of the results of TABLE 4 / TABLE 5) | %T/C Day 16 ([3]; 10 mg/kg/dose PO (footnote: IP)) | %T/C Day 16 ([3]; 20 mg/kg/dose PO (footnote: IP)) | %T/C Day 16 ([3]; 40 mg/kg/dose PO (footnote: IP)) |
| --- | --- | --- | --- | --- | --- | --- | --- | --- | --- | --- | --- | --- | --- | --- | --- | --- | --- | --- | --- |
| CCN(CC)CC#CC(=O)Nc1ccc2ncnc(Nc3cccc(Br)c3)c2c1 [Example 25, 4-Diethylamino-but-2-ynoic acid [4-(3-bromo-phenylamino)-quinazolin-6-yl]-amide] | 0.004 µg/mL (≈ 0.00884 µM) | 0.06 µg/mL (≈ 0.133 µM) | 0.04 µg/mL (≈ 0.0884 µM) | 0.74 µg/mL (≈ 1.64 µM) | 0.04 µg/mL (≈ 0.0884 µM) | 0.07 µg/mL (≈ 0.155 µM) | 0.1 µg/mL (≈ 0.221 µM) | 0.05 µg/mL (≈ 0.111 µM) | 14 nM | – | 4/5 | 71% | 33% | 40% | 52% | effective inhibitor of tumor growth in vivo | – | – | – |
| CN(C)CC#CC(=O)Nc1ccc2ncnc(Nc3cccc(Br)c3)c2c1 [Example 21, 4-Dimethylamino-but-2-ynoic acid [4-(3-bromo-phenylamino)-quinazolin-6-yl]-amide] | – | – | – | – | – | – | – | – | – | – | – | – | – | – | – | – | 56% | 82% | 84% |
| CN(C)c1c(Nc2ccc3ncnc(Nc4cccc(Br)c4)c3c2)c(=O)c1=O [Example 49, 3-[4-(3-Bromo-phenylamino)-quinazolin-6-ylamino]-4-dimethylamino-cyclobut-3-ene-1,2-dione] | 3.57 µg/mL (≈ 8.15 µM) | 2.83 µg/mL (≈ 6.46 µM) | 3.16 µg/mL (≈ 7.21 µM) | 6.72 µg/mL (≈ 15.3 µM) | 4.81 µg/mL (≈ 11 µM) | 3.61 µg/mL (≈ 8.24 µM) | 3.48 µg/mL (≈ 7.94 µM) | 5.2 µg/mL (≈ 11.9 µM) | 100 nM | – | – | – | – | – | – | – | – | – | – |
| O=C(C#CCCl)Nc1ccc2ncnc(Nc3cccc(Br)c3)c2c1 [Example 12, 4-Chloro-but-2-ynoic acid [4-(3-bromo-phenylamino)-quinazolin-6-y]-amide] | < 0.01 µg/mL | 0.03 µg/mL (≈ 0.0722 µM) | 0.07 µg/mL (≈ 0.168 µM) | 0.49 µg/mL (≈ 1.18 µM) | 0.03 µg/mL (≈ 0.0722 µM) | 0.06 µg/mL (≈ 0.144 µM) | 0.04 µg/mL (≈ 0.0962 µM) | 0.39 µg/mL (≈ 0.938 µM) | 5 nM | – | – | – | – | – | – | – | – | – | – |
| CC(C)(C)[Si](C)(C)OCC#CC(=O)Nc1ccc2ncnc(Nc3cccc(Br)c3)c2c1 [Example 15, 4-(tert-Butyl-dimethyl-silanyloxy)-but-2-ynoic acid [4-(3-bromo-phenylamino)quinazolin-6-yl]-amide] | 0.38 µg/mL (≈ 0.743 µM) | 0.04 µg/mL (≈ 0.0782 µM) | 0.05 µg/mL (≈ 0.0978 µM) | 0.45 µg/mL (≈ 0.88 µM) | 0.02 µg/mL (≈ 0.0391 µM) | 0.02 µg/mL (≈ 0.0391 µM) | 0.03 µg/mL (≈ 0.0587 µM) | 0.42 µg/mL (≈ 0.821 µM) | 6 nM | – | – | – | – | – | – | – | – | – | – |

Now from value to compound, other results behind:

| IC50 (SKBR3) | IC50 (A431) | IC50 (A2780DDP) | IC50 (MCF7) | IC50 (A2780S) | IC50 (SW620) | IC50 (LOX) | IC50 (MB435) | IC50 [2] | IC50 [4] | Compound | S/T (No. Survivors/No. Treated on Day +28 post tumor staging) ([1]; Table 5: 40 PO, days 1 through 10) | %T/C Day 7 ([1]; Table 5: 40 PO, days 1 through 10, Day 7) | %T/C Day 14 ([1]; Table 5: 40 PO, days 1 through 10, Day 14) | %T/C Day 21 ([1]; Table 5: 40 PO, days 1 through 10, Day 21) | %T/C Day 28 ([1]; Table 5: 40 PO, days 1 through 10, Day 28) | inhibition of tumor growth in vivo (result in words) ([1]; summary of the results of TABLE 4 / TABLE 5) | %T/C Day 16 ([3]; 10 mg/kg/dose PO (footnote: IP)) | %T/C Day 16 ([3]; 20 mg/kg/dose PO (footnote: IP)) | %T/C Day 16 ([3]; 40 mg/kg/dose PO (footnote: IP)) |
| --- | --- | --- | --- | --- | --- | --- | --- | --- | --- | --- | --- | --- | --- | --- | --- | --- | --- | --- | --- |
| – | 0.315 µg/mL (≈ 0.762 µM) | 0.603 µg/mL (≈ 1.46 µM) | 1.58 µg/mL (≈ 3.82 µM) | 0.424 µg/mL (≈ 1.03 µM) | 0.581 µg/mL (≈ 1.41 µM) | 0.482 µg/mL (≈ 1.17 µM) | – | – | 1.26 nM | C=C(CNc1ccc2ncnc(Nc3cccc(Br)c3)c2c1)C(=O)OC [Example 59, 2-{[4-(3-Bromo-phenylamino)-quinazolin-6-ylamino]-methyl)-acrylic acid methyl ester] | – | – | – | – | – | – | – | – | – |
| – | 0.35 µg/mL (≈ 0.847 µM) | 0.626 µg/mL (≈ 1.51 µM) | 0.566 µg/mL (≈ 1.37 µM) | 0.749 µg/mL (≈ 1.81 µM) | 1.89 µg/mL (≈ 4.57 µM) | 0.725 µg/mL (≈ 1.75 µM) | – | – | 34 nM | COC(=O)/C=C/CNc1ccc2ncnc(Nc3cccc(Br)c3)c2c1 [Example 60, (E)-4-[4-(3-Bromo-phenylamino)-quinazolin-6-ylamino]-but-2-enoicacid methyl ester] | – | – | – | – | – | – | – | – | – |
| 0.04 µg/mL (≈ 0.116 µM) | 0.73 µg/mL (≈ 2.11 µM) | 1.39 µg/mL (≈ 4.02 µM) | 3.62 µg/mL (≈ 10.5 µM) | 1.86 µg/mL (≈ 5.38 µM) | 0.43 µg/mL (≈ 1.24 µM) | 0.5 µg/mL (≈ 1.45 µM) | 4.35 µg/mL (≈ 12.6 µM) | 80 nM | – | CC#CC(=O)Nc1ccc2ncnc(Nc3cccc(N(C)C)c3)c2c1 [Example 61, But-2-ynoic acid [4-(3-dimethylamino-phenylamino)-quinazolin-6-yl]-amide] | – | – | – | – | – | – | – | – | – |
| 6.21 µg/mL (≈ 15.1 µM) | 6.84 µg/mL (≈ 16.7 µM) | 6.92 µg/mL (≈ 16.9 µM) | > 100 µg/mL | 56.9 µg/mL (≈ 139 µM) | > 100 µg/mL | 56.5 µg/mL (≈ 138 µM) | > 100 µg/mL | 7 nM | – | Nc1c(Nc2ccc3ncnc(Nc4cccc(Br)c4)c3c2)c(=O)c1=O [Example 51, 3-Amino-4-[4-(3-bromo-phenylamino)-quinazolin-6-ylamino]-cyclobut-3-ene-1,2-dione] | – | – | – | – | – | – | – | – | – |
| > 100 µg/mL | > 100 µg/mL | > 100 µg/mL | > 100 µg/mL | > 100 µg/mL | > 100 µg/mL | > 100 µg/mL | > 100 µg/mL | 0.4 nM | – | CNc1c(Nc2ccc3ncnc(Nc4cccc(Br)c4)c3c2)c(=O)c1=O [Example 50, 3-[4-(3-Bromo-phenylamino)-quinazolin-6-ylamino]-4-methylamino-cyclobut-3-ene-1,2-dione] | – | – | – | – | – | – | – | – | – |
